Test results as given in the supplement of paper PMC8920030.

Experiments:
Settings in all cases: growth mode: biofilm, 24 h; exposure time: 24 h
colistin [1] = compound: T1, CCC(C)CCCC(=O)N[C@@H](CCN)C(=O)N[C@H](C(=O)N[C@@H](CCN)C(=O)N[C@H]1CCNC(=O)[C@H]([C@@H](C)O)NC(=O)[C@H](CCN)NC(=O)[C@H](CCN)NC(=O)[C@H](CC(C)C)NC(=O)[C@@H](CC(C)C)NC(=O)[C@H](CCN)NC1=O)[C@@H](C)O [colistin]; assay: minimum concentration eradicating biofilm below detection limit (MCK-E); higher = more biofilm tolerance
Protocol: (§1)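 Clinical P. aeruginosa isolates were grown as static biofilms for 24 h at 37 °C in LB in half-area 96-well plates, then exposed for 24 h to colistin at 1, 4, 16, 64, 256 or […]. Surviving CFU were counted by spotting serial dilutions. MCK is the lowest tested concentration giving the stated log reduction in CFU versus an untreated control; '>1024' means the reduction was not reached at the top dose, and 1 is the lowest dose tested (≤1).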

tobramycin [2] = compound: T2, NC[C@H]1O[C@H](O[C@H]2[C@H](O)[C@@H](O[C@H]3O[C@H](CO)[C@@H](O)[C@H](N)[C@H]3O)[C@H](N)C[C@@H]2N)[C@H](N)C[C@@H]1O [tobramycin]; assay: minimum concentration of killing, 1-log CFU reduction of biofilm (MCK90); higher = more biofilm tolerance
Protocol: as §1, with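 “tobramycin” for “colistin”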

tobramycin [3] = compound: T2, tobramycin; assay: minimum concentration eradicating biofilm below detection limit (MCK-E); higher = more biofilm tolerance
Protocol: as §1, with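 “tobramycin” for “colistin”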

tobramycin [4] = compound: T2, tobramycin; assay: minimum concentration of killing, 4-log CFU reduction of biofilm (MCK99.99); higher = more biofilm tolerance
Protocol: as §1, with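 “tobramycin” for “colistin”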

tobramycin [5] = compound: T2, tobramycin; assay: minimum concentration of killing, 2-log CFU reduction of biofilm (MCK99); higher = more biofilm tolerance
Protocol: as §1, with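 “tobramycin” for “colistin”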

colistin [6] = compound: T1, colistin; assay: minimum concentration of killing, 1-log CFU reduction of biofilm (MCK90); higher = more biofilm tolerance
Protocol: as §1

colistin [7] = compound: T1, colistin; assay: minimum concentration of killing, 2-log CFU reduction of biofilm (MCK99); higher = more biofilm tolerance
Protocol: as §1

colistin [8] = compound: T1, colistin; assay: minimum concentration of killing, 4-log CFU reduction of biofilm (MCK99.99); higher = more biofilm tolerance
Protocol: as §1

Row | Test System | minimum concentration eradicating biofilm below detection limit (colistin [1]) | minimum concentration of killing (tobramycin [2]) | minimum concentration eradicating biofilm below detection limit (tobramycin [3]) | minimum concentration of killing (tobramycin [4]) | minimum concentration of killing (tobramycin [5]) | minimum concentration of killing (colistin [6]) | minimum concentration of killing (colistin [7]) | minimum concentration of killing (colistin [8])
1 | Pseudomonas aeruginosa clinical isolate CH2522 | 256 µg/mL | 16 µg/mL | 1020 µg/mL | 1020 µg/mL | 16 µg/mL | 64 µg/mL | 64 µg/mL | 256 µg/mL
2 | Pseudomonas aeruginosa clinical isolate CH2527 | 256 µg/mL | 64 µg/mL | 1020 µg/mL | 256 µg/mL | 64 µg/mL | 256 µg/mL | 256 µg/mL | 256 µg/mL
3 | Pseudomonas aeruginosa clinical isolate CH2582 | 1020 µg/mL | ≤ 1 µg/mL | 64 µg/mL | 64 µg/mL | 4 µg/mL | ≤ 1 µg/mL | 256 µg/mL | 256 µg/mL
4 | Pseudomonas aeruginosa clinical isolate CH2597 | 256 µg/mL | 256 µg/mL | 256 µg/mL | 256 µg/mL | 256 µg/mL | 256 µg/mL | 256 µg/mL | 256 µg/mL
5 | Pseudomonas aeruginosa clinical isolate CH2598 | 256 µg/mL | 4 µg/mL | 256 µg/mL | 256 µg/mL | 16 µg/mL | 256 µg/mL | 256 µg/mL | 256 µg/mL
6 | Pseudomonas aeruginosa clinical isolate CH2658 | 256 µg/mL | 4 µg/mL | 256 µg/mL | 64 µg/mL | 16 µg/mL | 64 µg/mL | 256 µg/mL | 256 µg/mL
7 | Pseudomonas aeruginosa clinical isolate CH5531 |  | 16 µg/mL | 1020 µg/mL | 256 µg/mL | 256 µg/mL |  |  | 
8 | Pseudomonas aeruginosa clinical isolate CH5548 |  | 4 µg/mL | 64 µg/mL | 16 µg/mL | 4 µg/mL |  |  | 
9 | Pseudomonas aeruginosa clinical isolate CH5591 |  | 1020 µg/mL | > 1020 µg/mL | > 1020 µg/mL | 1020 µg/mL |  |  | 
10 | Pseudomonas aeruginosa clinical isolate ESP057 | 256 µg/mL | ≤ 1 µg/mL | 256 µg/mL | 256 µg/mL |  | 256 µg/mL | 256 µg/mL | 256 µg/mL
11 | Pseudomonas aeruginosa clinical isolate F1659 |  | 4 µg/mL | 1020 µg/mL | 256 µg/mL | 16 µg/mL | 16 µg/mL | 64 µg/mL | 64 µg/mL
12 | Pseudomonas aeruginosa clinical isolate F1689 |  | 4 µg/mL |  |  | 4 µg/mL |  |  | 
13 | Pseudomonas aeruginosa clinical isolate F1748 |  | 4 µg/mL | 256 µg/mL | 16 µg/mL | 16 µg/mL | 256 µg/mL | 256 µg/mL | 256 µg/mL
14 | Pseudomonas aeruginosa clinical isolate F1801 |  | ≤ 1 µg/mL | 256 µg/mL | 256 µg/mL | 4 µg/mL | 256 µg/mL | 256 µg/mL | 256 µg/mL
15 | Pseudomonas aeruginosa clinical isolate F1883 | 1020 µg/mL | 64 µg/mL |  |  | 256 µg/mL | 16 µg/mL | 256 µg/mL | 1020 µg/mL
16 | Pseudomonas aeruginosa clinical isolate F1894 | 256 µg/mL | 4 µg/mL | 256 µg/mL |  | 16 µg/mL | 256 µg/mL | 256 µg/mL | 256 µg/mL
17 | Pseudomonas aeruginosa clinical isolate F1997 |  | 16 µg/mL | > 1020 µg/mL | 1020 µg/mL | 64 µg/mL |  |  | 
18 | Pseudomonas aeruginosa clinical isolate F2026 | 256 µg/mL |  | > 1020 µg/mL | > 1020 µg/mL | 256 µg/mL | 256 µg/mL | 256 µg/mL | 256 µg/mL
19 | Pseudomonas aeruginosa clinical isolate F2029 | 256 µg/mL |  | 256 µg/mL | 256 µg/mL |  | 256 µg/mL | 256 µg/mL | 256 µg/mL
20 | Pseudomonas aeruginosa clinical isolate F2030 | 256 µg/mL |  |  | 1020 µg/mL |  | 64 µg/mL | 256 µg/mL | 256 µg/mL
21 | Pseudomonas aeruginosa clinical isolate F2034 | 256 µg/mL |  |  |  |  | 64 µg/mL | 64 µg/mL | 256 µg/mL
22 | Pseudomonas aeruginosa clinical isolate F2035 | 1020 µg/mL |  |  |  |  | 64 µg/mL | 64 µg/mL | 256 µg/mL
23 | Pseudomonas aeruginosa clinical isolate F2044 | 256 µg/mL |  |  |  |  |  |  | 
24 | Pseudomonas aeruginosa clinical isolate F2045 | > 1020 µg/mL |  |  |  |  |  |  | 
25 | Pseudomonas aeruginosa clinical isolate F2059 | 256 µg/mL |  |  |  |  |  |  | 
